This passage reports IC50 and Ki results from ChEMBL document CHEMBL4813911 (J Med Chem, 2020).

The IC50 is the concentration needed to halve the response being measured. A low value points to higher potency. The Ki is the equilibrium dissociation constant of an inhibitor or competing ligand from its target. Higher therefore signals weaker binding.

Assay [1] deals with T1, Amine oxidase [flavin-containing] A (Homo sapiens, UniProt P21397).
T1 sequence (P21397 whole entry): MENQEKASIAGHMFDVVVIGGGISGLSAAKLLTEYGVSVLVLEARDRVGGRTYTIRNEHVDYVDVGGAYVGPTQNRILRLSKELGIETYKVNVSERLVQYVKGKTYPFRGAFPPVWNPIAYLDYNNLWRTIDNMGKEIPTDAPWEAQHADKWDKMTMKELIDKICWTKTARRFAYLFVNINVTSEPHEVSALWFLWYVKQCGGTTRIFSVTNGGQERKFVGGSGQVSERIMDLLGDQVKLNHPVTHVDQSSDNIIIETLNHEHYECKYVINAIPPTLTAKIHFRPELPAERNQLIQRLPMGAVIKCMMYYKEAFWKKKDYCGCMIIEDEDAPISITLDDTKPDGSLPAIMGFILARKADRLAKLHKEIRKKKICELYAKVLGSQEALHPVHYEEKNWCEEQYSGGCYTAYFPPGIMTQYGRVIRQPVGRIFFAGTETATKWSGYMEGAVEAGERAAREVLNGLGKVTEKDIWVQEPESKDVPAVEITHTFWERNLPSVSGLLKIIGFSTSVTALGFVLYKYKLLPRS
Nature of the assay: Inhibition of human MAO-A expressed in baculovirus infected BTI insect cells preincubated for 10 mins followed by substrate addition and measured after 60 mins by luciferin-based luminescence assay.

Assay [2] deals with T2, Amine oxidase [flavin-containing] B (Homo sapiens, UniProt P27338).
T2 sequence (P27338 whole entry): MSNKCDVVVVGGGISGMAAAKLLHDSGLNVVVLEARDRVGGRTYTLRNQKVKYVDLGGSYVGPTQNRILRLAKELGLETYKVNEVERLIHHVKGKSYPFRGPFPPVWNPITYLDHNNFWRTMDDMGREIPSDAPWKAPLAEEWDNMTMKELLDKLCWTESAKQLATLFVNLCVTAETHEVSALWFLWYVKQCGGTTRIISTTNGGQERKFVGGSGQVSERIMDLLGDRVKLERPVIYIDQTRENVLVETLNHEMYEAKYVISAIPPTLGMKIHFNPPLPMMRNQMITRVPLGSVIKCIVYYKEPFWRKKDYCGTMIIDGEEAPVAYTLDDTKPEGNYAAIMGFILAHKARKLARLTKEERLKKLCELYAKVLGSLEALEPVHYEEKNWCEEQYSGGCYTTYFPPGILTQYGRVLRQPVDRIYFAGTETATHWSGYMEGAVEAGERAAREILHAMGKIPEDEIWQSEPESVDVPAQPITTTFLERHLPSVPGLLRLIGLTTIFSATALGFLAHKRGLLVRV
Nature of the assay: Inhibition of human MAO-B expressed in baculovirus infected BTI insect cells preincubated for 10 mins followed by substrate addition and measured after 60 mins by luciferin-based luminescence assay.

Assay [3] has as its target T1, Amine oxidase [flavin-containing] A. Nature of the assay: Inhibition of human MAO-A expressed in baculovirus infected BTI insect cells using tyramine as substrate incubated for 30 mins by peroxidase-coupled assay.
In assay [4] the target is T2, Amine oxidase [flavin-containing] B. Nature of the assay: biochemical.
Assay [5] concerns the target T3, Lysine-specific histone demethylase 2 (Homo sapiens, UniProt Q8NB78).
T3 sequence (Q8NB78 whole entry): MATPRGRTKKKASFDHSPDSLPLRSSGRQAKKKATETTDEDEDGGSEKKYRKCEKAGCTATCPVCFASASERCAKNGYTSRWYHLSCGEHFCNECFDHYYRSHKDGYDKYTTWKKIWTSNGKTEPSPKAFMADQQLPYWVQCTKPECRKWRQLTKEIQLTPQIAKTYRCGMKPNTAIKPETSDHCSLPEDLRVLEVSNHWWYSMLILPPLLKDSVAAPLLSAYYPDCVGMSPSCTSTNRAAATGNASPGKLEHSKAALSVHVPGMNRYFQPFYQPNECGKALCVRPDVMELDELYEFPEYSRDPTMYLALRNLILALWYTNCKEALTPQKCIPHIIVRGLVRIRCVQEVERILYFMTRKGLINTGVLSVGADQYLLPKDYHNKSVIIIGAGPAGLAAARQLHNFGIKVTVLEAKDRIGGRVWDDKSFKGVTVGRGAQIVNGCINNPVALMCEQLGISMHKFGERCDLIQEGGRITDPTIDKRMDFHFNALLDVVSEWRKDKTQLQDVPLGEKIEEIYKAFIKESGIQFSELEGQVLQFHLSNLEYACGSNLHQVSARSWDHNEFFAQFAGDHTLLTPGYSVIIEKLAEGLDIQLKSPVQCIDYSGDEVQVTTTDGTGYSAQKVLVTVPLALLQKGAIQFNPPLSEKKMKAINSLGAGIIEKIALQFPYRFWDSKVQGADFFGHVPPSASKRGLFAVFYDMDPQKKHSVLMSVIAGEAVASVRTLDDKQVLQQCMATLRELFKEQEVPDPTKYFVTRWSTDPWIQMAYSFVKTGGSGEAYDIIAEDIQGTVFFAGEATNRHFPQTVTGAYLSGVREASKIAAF
Nature of the assay: Inhibition of LSD2 (unknown origin) using Lys4-dimethylated H3 (1-20) peptide as substrate incubated for 30 mins by peroxidase-coupled assay.

Assay [6] deals with Lysine-specific histone demethylase 1A (Homo sapiens, UniProt O60341). Nature of the assay: Inhibition of human LSD1 (172 to 833 residues) using Lys4-dimethylated H3 (1-20) peptide as substrate incubated for 30 mins by peroxidase-coupled assay.

Turning to `Cn1cc(C(=O)Nc2ccc([C@@H]3C[C@H]3NCC3CC3)cc2)cn1`, the IC50 in assay [1] and in assay [2] was above 100 µM in each case.

As to `N[C@H]1CCN(C(=O)CNC2CC2c2cc(F)cc(F)c2OCc2ccccc2)C1` (stereo partly specified), the Ki is above 250 µM in assay [3], above 250 µM in assay [4], above 250 µM in assay [5] and 0.56 µM in assay [6].
